# Results published in US6326023A, “Synergistic anti-malarial formulation” (priority 2000, dated 2001).
# Experiments:
# [1] = tested on: P. yoelli nigeriensis (MDR II); assay: Blood schizontocidal action of arteether α/β formulation by rectal route in infected Swiss mice; type: in vivo, P. yoelli nigeriensis (MDR II) in Swiss mice
# Protocol: α,β-Arteether mixture dissolved in neutralized ground-nut oil was administered to P. yoelli nigeriewis (MDR II) infected mice at 10 mg/kg to 20 mg/kg dose from day 0 to day 2 (for 3 consecutive days) by intra-rectal route. Drug was administered with 0.05-0.25 ml oil (vehicle) in single dose or in 2 divided dose daily. Parasitaemia was recorded daily from tail blood smears stained with Giemsa stain and results are given as % parasitaemia (means±SD). […] Presumptive arteether rectal formulation or suppository administration can save mortality in severe/complicated cases. α/β Arteether rectal route controls the severity of infection and prevents mortality in severe complicated comatose malaria cases and will be specially useful in infants, children and those having frequent vomiting and can not be given oral formulation initially. […] Rectal route α/β arteether formulation remains 1st line of emergency treatment of comatose P. falciparum cases in areas of MDR.
# [2] = tested on: P. yoelli nigeriensis (MDR II); assay: Blood schizonticidal activity of oral arteether formulation prepared in DMSO-distilled water in infected Swiss mice; type: in vivo, P. yoelli nigeriensis (MDR II) in Swiss mice; conditions: for Bioavailability by oral route: suspension in DMSO/distilled water
# Protocol: Swiss mice 25±1 gm infected intraperitoneally with 1×10^7 parasitized rbcs were administered α/β formulation, prepared in DMSO (3-4 drop) and then suspended in distilled water by oral administration at various doses ranging between 40-100 mg/kg for 5 consecutive days.
# Parasitaemia was recorded periodically from tail blood smears upto 28 days of observation. Both 60 and 80 mg/kg×5 doses were able to eliminate the prasitaemia upto 28 days of observation and were curative. […] A very high dose is required for curative action against MDR of infection and its bioavailability by oral route as suspension in D.W. is low.
# [3] = tested on: P. yoelii nigeriensis (MDR II); assay: Blood schizonticidal activity of α/β arteether formulation in neutralized oil by oral route in infected Swiss mice; type: in vivo, P. yoelii nigeriensis (MDR II) in Swiss mice
# Protocol: Efficacy of oral administration of arteether formulation for control of blood induced multi-drug resistant P. yoebi nigerensis (MDR II) in Swiss mice (25±g) was evaluated. The mice was infected intraperitoneafly with 1×10^5 parasitized RBC, and drug treatment 10,15,20 and 30 mg/kg was given once daily for five consecutive days (starting from day 0 to day 4). Blood smears made from tail blood and stained with giemsa were examined periodically till 28 days of infection to record parasitaemia levels and number of surviving/cured mice till 28 days.
# P. knowlesi/P. fragile = conditions: intramuscular, rhesus monkey; cited from earlier work
# P. yoelii nigeriensis = conditions: intramuscular; chloroquine, mefloquine and quinine resistant strain; cited from earlier work
smiles,measurement,setting,value
CCOC1O[C@@H]2O[C@@]3(C)CC[C@H]4[C@H](C)CC[C@@H]([C@H]1C)[C@@]24OO3 (stereo partly drawn) [α/β arteether],Drug absorption by rectal route,"[1]; neutralized ground-nut oil, rectal",fairly rapid
same,Parasitaemia (mean ± SD),"[1]; rectal, 10 mg/kg × 3 days in 2 divided doses at 6 hrs, Day 4",0.0%
same,Parasitaemia (mean ± SD),"[1]; rectal, 10 mg/kg × 3 days in 2 divided doses at 6 hrs, Day 5",0.0%
same,Parasitaemia (mean ± SD),"[1]; rectal, 10 mg/kg × 3 days in 2 divided doses at 6 hrs, Day 11",10.25 ± 10.0%
same,Parasitaemia (mean ± SD),"[1]; rectal, 10 mg/kg × 3 days in 2 divided doses at 6 hrs, Day 28",0.0%
same,Number of animals (in parenthesis),"[1]; rectal, 10 mg/kg × 3 days in 2 divided doses, Day 11, 8 at Day 5",4
same,Number of animals (in parenthesis),"[1]; rectal, 10 mg/kg × 3 days in 2 divided doses, Day 28, 8 at Day 5",1
same,Parasitaemia (mean ± SD),"[1]; rectal, 10 mg/kg × 3 days, Day 4",0.0002 ± 0.001%
same,Number of animals negative (-ve),"[1]; rectal, 10 mg/kg × 3 days, Day 4, of 8",6
same,Parasitaemia (mean ± SD),"[1]; rectal, 10 mg/kg × 3 days, Day 5",0.002 ± 0.080%
same,Number of animals negative (-ve),"[1]; rectal, 10 mg/kg × 3 days, Day 5, of 8",6
same,Parasitaemia (mean ± SD),"[1]; rectal, 10 mg/kg × 3 days, Day 11",0.0%
same,Number of animals (in parenthesis),"[1]; rectal, 10 mg/kg × 3 days, Day 11, 8 at Day 5",3
same,Parasitaemia (mean ± SD),"[1]; rectal, 10 mg/kg × 3 days, Day 28",0.0%
same,Number of animals (in parenthesis),"[1]; rectal, 10 mg/kg × 3 days, Day 28, 8 at Day 5",3
same,Parasitaemia (mean ± SD),"[1]; rectal, 15 mg/kg × 3 days in 2 divided doses at 6 hrs, Day 4",0.0%
same,Parasitaemia (mean ± SD),"[1]; rectal, 15 mg/kg × 3 days in 2 divided doses at 6 hrs, Day 5",0.0%
same,Parasitaemia (mean ± SD),"[1]; rectal, 15 mg/kg × 3 days in 2 divided doses at 6 hrs, Day 11",0.0%
same,Parasitaemia (mean ± SD),"[1]; rectal, 15 mg/kg × 3 days in 2 divided doses at 6 hrs, Day 28",0.0%
same,Number of animals (in parenthesis),"[1]; rectal, 15 mg/kg × 3 days in 2 divided doses, Day 11, 8 at Day 5",4
same,Number of animals (in parenthesis),"[1]; rectal, 15 mg/kg × 3 days in 2 divided doses, Day 28, 8 at Day 5",4
same,Parasitaemia (mean ± SD),"[1]; rectal, 15 mg/kg × 3 days, Day 4",0.0%
same,Parasitaemia (mean ± SD),"[1]; rectal, 15 mg/kg × 3 days, Day 5",0.0%
same,Parasitaemia (mean ± SD),"[1]; rectal, 15 mg/kg × 3 days, Day 11",0.0%
same,Number of animals (in parenthesis),"[1]; rectal, 15 mg/kg × 3 days, Day 11, 8 at Day 5",4
same,Parasitaemia (mean ± SD),"[1]; rectal, 15 mg/kg × 3 days, Day 28",0.0%
same,Number of animals (in parenthesis),"[1]; rectal, 15 mg/kg × 3 days, Day 28, 8 at Day 5",4
same,Parasitaemia (mean ± SD),"[1]; rectal, 20 mg/kg × 3 days in 2 divided doses at 6 hrs, Day 4",0.0%
same,Parasitaemia (mean ± SD),"[1]; rectal, 20 mg/kg × 3 days in 2 divided doses at 6 hrs, Day 5",0.0%
same,Parasitaemia (mean ± SD),"[1]; rectal, 20 mg/kg × 3 days in 2 divided doses at 6 hrs, Day 11",0.0%
same,Parasitaemia (mean ± SD),"[1]; rectal, 20 mg/kg × 3 days in 2 divided doses at 6 hrs, Day 28",0.0%
same,Number of animals (in parenthesis),"[1]; rectal, 20 mg/kg × 3 days in 2 divided doses, Day 11, 8 at Day 5",6
same,Number of animals (in parenthesis),"[1]; rectal, 20 mg/kg × 3 days in 2 divided doses, Day 28, 8 at Day 5",6
same,Parasitaemia (mean ± SD),"[1]; rectal, 20 mg/kg × 3 days, Day 4",0.0%
same,Parasitaemia (mean ± SD),"[1]; rectal, 20 mg/kg × 3 days, Day 5",0.0%
same,Parasitaemia (mean ± SD),"[1]; rectal, 20 mg/kg × 3 days, Day 11",0.0%
same,Number of animals (in parenthesis),"[1]; rectal, 20 mg/kg × 3 days, Day 11, 8 at Day 5",5
same,Parasitaemia (mean ± SD),"[1]; rectal, 20 mg/kg × 3 days, Day 28",0.0%
same,Number of animals (in parenthesis),"[1]; rectal, 20 mg/kg × 3 days, Day 28, 8 at Day 5",5
same,Suppression of parasitaemia after treatment,"[1]; rectal, 10.0, 15.0 and 20.0 mg/kg, upto 5 days",suppressed the parasitaemia
same,minimal effective dose,"[2]; Plasmodium yoelii, po, read-out: Curative dose / dose needed for total clearance",60 mg/kg
same,Parasitaemia,"[2]; oral, DMSO-distilled water, 40 mg/kg × 5, Day 4",Nil
same,Parasitaemia,"[2]; oral, DMSO-distilled water, 40 mg/kg × 5, Day 7",Nil
same,Parasitaemia,"[2]; oral, DMSO-distilled water, 40 mg/kg × 5, Day 10",3.86%
same,Parasitaemia,"[2]; oral, DMSO-distilled water, 40 mg/kg × 5, Day 14",3.5 ± 8.5%
same,Parasitaemia,"[2]; oral, DMSO-distilled water, 40 mg/kg × 5, Day 21",Nil
same,Parasitaemia,"[2]; oral, DMSO-distilled water, 40 mg/kg × 5, Day 28",Nil
same,Suppression of parasitaemia,"[2]; oral, DMSO-distilled water, 40 mg/kg × 5, MDR strain","transient suppression of parasitaemia, but was not curative"
same,Parasitaemia,"[2]; oral, DMSO-distilled water, 60 mg/kg × 5, Day 4",Nil
same,Parasitaemia,"[2]; oral, DMSO-distilled water, 60 mg/kg × 5, Day 7",Nil
same,Parasitaemia,"[2]; oral, DMSO-distilled water, 60 mg/kg × 5, Day 10",Nil
same,Parasitaemia,"[2]; oral, DMSO-distilled water, 60 mg/kg × 5, Day 14",Nil
same,Parasitaemia,"[2]; oral, DMSO-distilled water, 60 mg/kg × 5, Day 21",Nil
same,Parasitaemia,"[2]; oral, DMSO-distilled water, 60 mg/kg × 5, Day 28",Nil
same,Parasitaemia,"[2]; oral, DMSO-distilled water, 80 mg/kg × 5, Day 4",Nil
same,Parasitaemia,"[2]; oral, DMSO-distilled water, 80 mg/kg × 5, Day 7",Nil
same,Parasitaemia,"[2]; oral, DMSO-distilled water, 80 mg/kg × 5, Day 10",Nil
same,Parasitaemia,"[2]; oral, DMSO-distilled water, 80 mg/kg × 5, Day 14",Nil
same,Parasitaemia,"[2]; oral, DMSO-distilled water, 80 mg/kg × 5, Day 21",Nil
same,Parasitaemia,"[2]; oral, DMSO-distilled water, 80 mg/kg × 5, Day 28",Nil
same,Parasitaemia,"[2]; oral, DMSO-distilled water, 100 mg/kg × 5, Day 4",Nil
same,Parasitaemia,"[2]; oral, DMSO-distilled water, 100 mg/kg × 5, Day 7",Nil
same,Parasitaemia,"[2]; oral, DMSO-distilled water, 100 mg/kg × 5, Day 10",Nil
same,Parasitaemia,"[2]; oral, DMSO-distilled water, 100 mg/kg × 5, Day 14",Nil
same,Parasitaemia,"[2]; oral, DMSO-distilled water, 100 mg/kg × 5, Day 21",Nil
same,Parasitaemia,"[2]; oral, DMSO-distilled water, 100 mg/kg × 5, Day 28",Nil
same,Curative action (elimination of parasitaemia),"[2]; oral, DMSO-distilled water, 60 and 80 mg/kg × 5, upto 28 days",curative
same,Bioavailability by oral route,[2],low
same,Bioavailability by oral route,[2]; listed as arteether α/β,of lower order
same,Parasitaemia (mean ± SD),"[3]; 10 mg/kg × 5 days, Day 6",0.9 ± 1.0%
same,Parasitaemia (mean ± SD),"[3]; 10 mg/kg × 5 days, Day 9",41 ± 32.8%
same,Parasitaemia (mean ± SD),"[3]; 10 mg/kg × 5 days, Day 12",0.0%
same,Number of mice surviving,"[3]; 10 mg/kg × 5 days, Day 12, of 8",2
same,Parasitaemia (mean ± SD),"[3]; 10 mg/kg × 5 days, Day 14",0.0%
same,Number of mice surviving,"[3]; 10 mg/kg × 5 days, Day 14, of 8",2
same,Parasitaemia (mean ± SD),"[3]; 10 mg/kg × 5 days, Day 28",0.0%
same,Number of mice surviving,"[3]; 10 mg/kg × 5 days, Day 28, of 8",2
same,Parasitaemia (mean ± SD),"[3]; 15 mg/kg × 5 days, Day 6",0.0%
same,Parasitaemia (mean ± SD),"[3]; 15 mg/kg × 5 days, Day 9",5.12 ± 5.7%
same,Parasitaemia (mean ± SD),"[3]; 15 mg/kg × 5 days, Day 12",0.0%
same,Number of mice surviving,"[3]; 15 mg/kg × 5 days, Day 12, of 8",4
same,Parasitaemia (mean ± SD),"[3]; 15 mg/kg × 5 days, Day 14",0.0%
same,Number of mice surviving,"[3]; 15 mg/kg × 5 days, Day 14, of 8",4
same,Parasitaemia (mean ± SD),"[3]; 15 mg/kg × 5 days, Day 28",0.0%
same,Number of mice surviving,"[3]; 15 mg/kg × 5 days, Day 28, of 8",4
same,Parasitaemia (mean ± SD),"[3]; 20 mg/kg × 5 days, Day 6",0.0%
same,Parasitaemia (mean ± SD),"[3]; 20 mg/kg × 5 days, Day 9",3.75 ± 10.6%
same,Parasitaemia (mean ± SD),"[3]; 20 mg/kg × 5 days, Day 12",18.8 ± 32.5%
same,Parasitaemia (mean ± SD),"[3]; 20 mg/kg × 5 days, Day 14",0.0%
same,Number of mice surviving,"[3]; 20 mg/kg × 5 days, Day 14, of 8",5
same,Parasitaemia (mean ± SD),"[3]; 20 mg/kg × 5 days, Day 28",0.0%
same,Number of mice surviving,"[3]; 20 mg/kg × 5 days, Day 28, of 8",5
same,Parasitaemia (mean ± SD),"[3]; 30 mg/kg × 5 days, Day 6",0.0%
same,Parasitaemia (mean ± SD),"[3]; 30 mg/kg × 5 days, Day 9",0.0%
same,Parasitaemia (mean ± SD),"[3]; 30 mg/kg × 5 days, Day 12",0.0%
same,Parasitaemia (mean ± SD),"[3]; 30 mg/kg × 5 days, Day 14",0.0%
same,Number of mice surviving,"[3]; 30 mg/kg × 5 days, Day 14, of 8",8
same,Parasitaemia (mean ± SD),"[3]; 30 mg/kg × 5 days, Day 28",0.0%
same,Number of mice surviving,"[3]; 30 mg/kg × 5 days, Day 28, of 8",8
same,Cure of experimental cerebral malaria,P. knowlesi/P. fragile,cures experimental cerebral malaria infections
same,Antimalarial activity,P. yoelii nigeriensis,shows antimalarial activity
